pIC50: −log10 of the molar value.
Assays:
[1] = Pharmacokinetics test (hepatic microsome stability test); settings: human hepatic microsome 1 mg/mL, 37° C., 60 min, 1 μmol/L
rat EP4 receptor = rat EP4 receptor (Rattus norvegicus (Rat), UniProt P43114); assay: EP4 antagonistic activity measurement using prostanoid receptor subtype expressing cells (cAMP); type: cell-based; settings: CHO cells expressing rat EP4 receptor; inhibition of cAMP production by PGE2 10 nM
Description: CHO cells expressing rat EP4 receptor subtypes were prepared according to the methods of Nishigaki et al. (FEBS Letters, Vol. 364, p. 339-341, 1995), and used for experiment. Cultured subconfluent cells were detached, and suspended in an assay medium (MEM containing 1 mmol/L IBMX, 1% HSA) in a concentration of 1×10^6 cells/mL. For reaction, PGE2 was added to the cell suspension (25 μL) in a final concentration of 10 nmol/L, either alone or as a 25-μL PGE2 solution containing the test compound. After 30 minutes of reaction at room temperature, the amount of cAMP in the cells was quantified according to the method in the descriptions of the cAMP assay kit (CISBIO).
The antagonistic effect (IC50 value) of the test compound was calculated as a value that represents an inhibition rate against a reaction with PGE2 alone at 10 nM, a concentration that produces a submaximal cAMP producing effect.

Sequence of rat EP4 receptor (P43114 whole entry): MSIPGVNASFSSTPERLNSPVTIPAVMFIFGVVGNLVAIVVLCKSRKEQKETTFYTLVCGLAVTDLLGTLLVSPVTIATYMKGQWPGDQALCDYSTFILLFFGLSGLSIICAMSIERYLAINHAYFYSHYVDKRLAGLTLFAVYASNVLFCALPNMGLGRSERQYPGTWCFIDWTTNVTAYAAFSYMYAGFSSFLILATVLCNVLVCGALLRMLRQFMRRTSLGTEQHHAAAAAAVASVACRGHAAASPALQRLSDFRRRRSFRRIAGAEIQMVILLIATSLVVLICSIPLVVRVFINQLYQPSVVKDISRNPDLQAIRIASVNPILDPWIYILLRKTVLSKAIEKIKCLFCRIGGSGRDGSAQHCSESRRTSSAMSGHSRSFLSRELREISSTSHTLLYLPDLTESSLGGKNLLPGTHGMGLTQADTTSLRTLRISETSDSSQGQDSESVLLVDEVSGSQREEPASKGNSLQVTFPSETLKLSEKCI

| Compound | Remaining rate (%) [1] [%] | pIC50 (rat EP4 receptor) |
| --- | --- | --- |
| N#Cc1ccc(CCCC(=O)O)c(NC(=O)[C@@H]2C[C@]23CCOc2ccc(-n4cccn4)cc23)c1 [Example 7-4, 4-[4-Cyano-2-({[(2′R,4S)-6-(1H-pyrazol-1-yl)-2,3-dihydrospiro[chromene-4,1′-cyclopropan]-2′-yl]carbonyl}amino)phenyl]butanoic acid] | 71 | 8.62 |
| N#Cc1ccc(CCCC(=O)O)c(NC(=O)[C@@H]2C[C@]23CCOc2ccc(-c4ccc(F)cn4)cc23)c1 [Example 10-9, 4-[4-Cyano-2-({[(2′R,4S)-6-(5-fluoro-2-pyridinyl)-2,3-dihydrospiro[chromene-4,1′-cyclopropan]-2′-yl]carbonyl}amino)phenyl]butanoic acid] | 75 | 8.17 |
| COCCNC(=O)c1ccc2c(c1)[C@]1(CC2)C[C@H]1C(=O)Nc1cc(C#N)ccc1CCCC(=O)O [Example 18-2, 4-{4-Cyano-2-[({(1R,2R)-6′-[(2-methoxyethyl)carbamoyl]-2′,3′-dihydrospiro[cyclopropane-1,1′-inden]-2-yl}carbonyl)amino]phenyl}butanoic acid] | 100 | 8.52 |
| CNC(=O)c1cc2c(cc1F)OCC[C@]21C[C@H]1C(=O)Nc1cc(C#N)ccc1CCCC(=O)O [Example 20-1] | 88 | 8.07 |
| N#Cc1ccc(CCCC(=O)O)c(NC(=O)[C@@H]2C[C@]23CCOc2ccc(-c4ccc(F)nc4)cc23)c1 [Example 7-17, 4-[4-Cyano-2-({[(2′R,4S)-6-(6-fluoro-3-pyridinyl)-2,3-dihydrospiro[chromene-4, 1′-cyclopropan]-2′-yl]carbonyl}amino)phenyl]butanoic acid] | 82 | 8.21 |
| N#Cc1ccc(CCCC(=O)O)c(NC(=O)[C@@H]2C[C@]23CCOc2ccc(C(=O)Nc4ccccn4)cc23)c1 [Example 2-23, 4-[4-Cyano-2-({[(2′R,4S)-6-(2-pyridinylcarbamoyl)-2,3-dihydrospiro[chromene-4,1′-cyclopropan]-2′-yl]carbonyl}amino)phenyl]butanoic acid] | 100 | 8.35 |
| CNC(=O)c1cc2c(cc1OC)OCC[C@]21C[C@H]1C(=O)Nc1cc(C#N)ccc1CCCC(=O)O [Example 33-1, 4-[4-Cyano-2-({[(2′R,4S)-7-methoxy-6-(methylcarbamoyl)-2,3-dihydrospiro[chromene-4,1′-cyclopropan]-2′-yl]carbonyl}amino)phenyl]butanoic acid] | 98 | 8.00 |
| N#Cc1ccc(CCCC(=O)O)c(NC(=O)[C@@H]2C[C@]23CCOc2ccc(-c4ncco4)cc23)c1 [Example 10-3, 4-[4-Cyano-2-({[(2′R,4S)-6-(1,3-oxazol-2-yl)-2,3-dihydrospiro[chromene-4,1′-cyclopropan]-2′-yl]carbonyl}amino)phenyl]butanoic acid] | 87 | 8.24 |
| N#Cc1ccc(CCCC(=O)O)c(NC(=O)[C@@H]2C[C@]23CCOc2ccc(-c4cccnn4)cc23)c1 [Example 10-5, 4-[4-Cyano-2-({[(2′R,4S)-6-(3-pyridazinyl)-2,3-dihydrospiro[chromene-4, 1′-cyclopropan]-2′-yl]carbonyl}amino)phenyl]butanoic acid] | 86 | 8.39 |
| CNC(=O)c1ccc2c(c1)[C@@]1(C[C@H]1C(=O)Nc1cc(C#N)ccc1CCCC(=O)O)CC2(C)C [Example 38-2, 4-[4-Cyano-2-({[(1S,2R)-3′,3′-dimethyl-6′-(methylcarbamoyl)-2′,3′-dihydrospiro[cyclopropane-1, 1′-inden]-2-yl]carbonyl}amino)phenyl]butanoic acid] | 89 | 8.37 |
| N#Cc1ccc(CCCC(=O)O)c(NC(=O)[C@@H]2C[C@]23COc2ccc(-c4cccnc4)cc23)c1 [Example 36, 4-[4-Cyano-2-({[(2′R,3S)-5-(3-pyridinyl)spiro[1-benzofuran-3,1′-cyclopropan]-2′-yl]carbony}amino)phenyl]butanoic acid] | 93 | 8.35 |
| CC(C)(C)NC(=O)c1ccc2c(c1)[C@]1(CCO2)C[C@H]1C(=O)Nc1cc(C#N)ccc1CCCC(=O)O [Example 2-3, 4-{4-Cyano-2-[({(2′R, 4S)-6-[(2-methyl-2-propanyl)carbamoyl]-2,3-dihydrospiro[chromene-4,1′-cyclopropan]-2′-yl}carbonyl)amino]phenyl}butanoic acid] | 91 | 8.46 |
| N#Cc1ccc(CCCC(=O)O)c(NC(=O)[C@@H]2C[C@]23CCOc2ccc(C(=O)Nc4ncccn4)cc23)c1 [Example 2-36, 4-[4-Cyano-2-({[(2′R,4S)-6-(2-pyrimidinylcarbamoyl)-2,3-dihydrospiro[chromene-4,1′-cyclopropan]-2′-yl]carbonyl}amino)phenyl]butanoic acid] | 100 | 8.27 |
| N#Cc1ccc(CCCC(=O)O)c(NC(=O)[C@@H]2C[C@]23CCOc2ccc(C(=O)Nc4ccno4)cc23)c1 [Example 2-41, 4-[4-Cyano-2-({[(2′R,4S)-6-(1,2-oxazol-5-ylcarbamoyl)-2,3-dihydrospiro[chromene-4,1′-cyclopropan]-2′-yl]carbonyl}amino)phenyl]butanoic acid] | 100 | 8.47 |
| CC1(C)C[C@]2(C[C@H]2C(=O)Nc2cc(C#N)ccc2CCCC(=O)O)c2cc(-c3cccnc3)ccc21 [Example 39, 4-[4-Cyano-2-({[(1S,2R)-3′,3′-dimethyl-6′-(3-pyridinyl)-2′,3′-dihydrospiro[cyclopropane-1,1′-inden]-2-yl]carbonyl}amino)phenyl]butanoic acid] | 78 | 8.24 |
| Cn1cc(NC(=O)c2ccc3c(c2)[C@]2(CC3)C[C@H]2C(=O)Nc2cc(C#N)ccc2CCCC(=O)O)cn1 [Example 18-3, 4-{4-Cyano-2-[({(1R,2R)-6′-[(1-methyl-1H-pyrazol-4-yl)carbamoyl]-2′,3′-dihydrospiro[cyclopropane-1,1′-inden]-2-yl}carbonyl)amino]phenyl}butanoic acid] | 91 | 8.57 |

More lines, now with the values ahead:

| Remaining rate (%) [1] [%] | pIC50 (rat EP4 receptor) | Compound |
| --- | --- | --- |
| 94 | 8.40 | N#Cc1ccc(CCCC(=O)O)c(NC(=O)[C@@H]2C[C@]23CCOc2ccc(C(=O)NC4CC4)cc23)c1 [Example 2-10, 4-[4-cyano-2-({[(2′R,4S)-6-(cyclopropylcarbamoyl)-2,3-dihydrospiro[chromene-4,1′-cyclopropan]-2′-yl]carbonyl}amino)phenyl]butanoic acid] |
| 85 | 8.43 | N#Cc1ccc(CCCC(=O)O)c(NC(=O)[C@@H]2C[C@]23CCOc2ccc(C(=O)NCC(F)F)cc23)c1 [Example 2-32, 4-{4-Cyano-2-[({(2′R,4S)-6-[(2,2-difluoroethyl)carbamoyl]-2,3-dihydrospiro[chromene-4,1′-cyclopropan]-2′-yl}carbonyl)amino]phenyl}butanoic acid] |
| 90 | 8.92 | CNC(=O)c1ccc2c(c1)[C@]1(CC2)C[C@H]1C(=O)Nc1cc(C#N)ccc1CCCC(=O)O [Example 18-1, 4-[4-Cyano-2-({[(1R,2R)-6′-(methylcarbamoyl)-2′,3′-dihydrospiro[cyclopropane-1, 1′-inden]-2-yl]carbonyl}amino)phenyl]butanoic acid] |
| 95 | 8.46 | COc1ccc(-c2ccc3c(c2)[C@]2(CCO3)C[C@H]2C(=O)Nc2cc(C#N)ccc2CCCC(=O)O)cn1 [Example 7-13, 4-[4-Cyano-2-({[(2′R,4S)-6-(6-methoxy-3-pyridinyl)-2,3-dihydrospiro[chromene-4, 1′-cyclopropan]-2′-yl]carbonyl}amino)phenyl]butanoic acid] |
| 100 | 8.44 | Cn1nccc1NC(=O)c1ccc2c(c1)[C@]1(CCO2)C[C@H]1C(=O)Nc1cc(C#N)ccc1CCCC(=O)O [Example 2-43, 4-{4-Cyano-2-[({(2′R,4S)-6-[(1-methyl-1H-pyrazol-5-yl)carbamoyl]-2,3-dihydrospiro[chromene-4,1′-cyclopropan]-2′-yl}carbonyl)amino]phenyl}butanoic acid] |
| 87 | 8.21 | COCCNC(=O)c1ccc2c(c1)[C@]1(CO2)C[C@H]1C(=O)Nc1cc(C#N)ccc1CCCC(=O)O [Example 37-2, 4-{4-Cyano-2-[({(2′R,3S)-5-[(2-methoxyethyl)carbamoyl]spiro[1-benzofuran-3,1′-cyclopropan]-2′-yl}carbonyl)amino]phenyl}butanoic acid] |
| 90 | 8.52 | CCNC(=O)c1ccc2c(c1)[C@]1(CCO2)C[C@H]1C(=O)Nc1cc(C#N)ccc1CCCC(=O)O [Example 2-46, 4-[4-Cyano-2-({[(2′R,4S)-6-(ethylcarbamoyl)-2,3-dihydrospiro[chromene-4,1′-cyclopropan]-2′-yl]carbonyl}amino)phenyl]butanoic acid] |
| 100 | 8.60 | CCCNC(=O)c1ccc2c(c1)[C@]1(CCO2)C[C@H]1C(=O)Nc1cc(C#N)ccc1CCCC(=O)O [Example 2-44, 4-[4-Cyano-2-({[(2′R,4S)-6-(propylcarbamoyl)-2,3-dihydrospiro[chromene-4,1′-cyclopropan]-2′-yl]carbonyl}amino)phenyl]butanoic acid] |
